One compound from patent US20200283482A1, “BICYCLIC PEPTIDE LIGAND PRR-A CONJUGATES AND USES THEREOF” (BicycleRD Limited, priority 2017, published 2020) can be followed below.

Data set [1] concerns the target T1, human TLR8 (Homo sapiens, UniProt Q9NR97).
T1 construct: host or cells: HEK293 reporter cell line
T1 sequence (Q9NR97 27-1041): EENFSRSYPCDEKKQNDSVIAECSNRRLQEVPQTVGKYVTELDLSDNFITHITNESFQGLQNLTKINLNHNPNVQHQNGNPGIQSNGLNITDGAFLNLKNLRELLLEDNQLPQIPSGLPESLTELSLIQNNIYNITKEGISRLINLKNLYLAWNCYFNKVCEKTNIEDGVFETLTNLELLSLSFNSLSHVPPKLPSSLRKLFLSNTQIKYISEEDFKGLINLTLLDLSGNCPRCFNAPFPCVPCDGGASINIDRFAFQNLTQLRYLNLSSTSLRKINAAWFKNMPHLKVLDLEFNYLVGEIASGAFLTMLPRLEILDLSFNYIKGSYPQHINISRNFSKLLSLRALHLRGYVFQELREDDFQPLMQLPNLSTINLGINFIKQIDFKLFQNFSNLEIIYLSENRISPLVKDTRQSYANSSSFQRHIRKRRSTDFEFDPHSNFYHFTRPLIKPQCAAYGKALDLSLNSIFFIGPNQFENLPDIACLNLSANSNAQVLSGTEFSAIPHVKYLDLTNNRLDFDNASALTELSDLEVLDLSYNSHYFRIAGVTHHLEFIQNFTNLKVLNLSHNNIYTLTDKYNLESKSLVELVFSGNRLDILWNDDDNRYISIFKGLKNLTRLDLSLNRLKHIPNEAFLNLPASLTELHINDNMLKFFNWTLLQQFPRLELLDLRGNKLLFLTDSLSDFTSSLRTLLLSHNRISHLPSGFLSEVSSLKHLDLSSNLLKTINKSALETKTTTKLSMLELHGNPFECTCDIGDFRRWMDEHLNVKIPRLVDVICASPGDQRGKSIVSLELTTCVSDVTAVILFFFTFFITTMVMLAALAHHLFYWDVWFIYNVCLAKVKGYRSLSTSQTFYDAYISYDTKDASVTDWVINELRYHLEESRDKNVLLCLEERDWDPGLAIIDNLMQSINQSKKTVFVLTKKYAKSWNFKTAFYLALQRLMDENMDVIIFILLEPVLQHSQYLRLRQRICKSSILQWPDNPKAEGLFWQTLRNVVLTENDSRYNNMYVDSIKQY
Briefly: Human TLR8 receptor activation, HEK293 reporter cell line. It counts as cell-based. Conditions: HEK293 reporter cells, 16 hours. Here is the method:
Compounds were tested for their activity to activate human TLR7 and TLR8 receptors using HEK293 reporter cell lines engineered to express respective receptors in accordance to manufacturer's instructions (InvivoGen). […] Incubation was for 16 hours at 37° C. and […]. Absorption at 655 nm was read on […]. Data was fitted using PRISM.

For data set [2], the system named is B16F10 xenograft. Briefly: In vivo efficacy of I-8 alone or with antiPD-1 mAb in B16F10 xenograft. On the set-up: species or system C57BL/6J mice. Here is the method:
B16F10 tumor cells were maintained in vitro as a monolayer culture in EMEM medium supplemented with 10% heat inactivated fetal bovine serum at 37° C. in an atmosphere of 5% CO2 in air. The tumor cells were routinely subcultured twice weekly by trypsin-EDTA treatment. The cells growing in an exponential growth phase were harvested and counted for tumor inoculation.
6-8 week old female C57BL/6J mice were inoculated subcutaneously at the right flank with B16F10 tumor cells (5×10^5) in 0.1 ml of PBS for tumor development. Animals were randomized when the average tumor volume reached 65 mm^3.
Conjugates were formulated in 25 mM Histidine, 10% sucrose pH=7 buffer (vehicle) and administered intravenously. Anti-PD1 antibody (Wuxi AppTech, Shanghai, China) was formulated in aqueous buffer and administered intraperitoneally.
Tumor volume was measured three times weekly in two dimensions using a caliper, and the volume was expressed in mm^3 using the formula: V=0.5 a×b^2 where a and b are the long and short diameters of the tumor, respectively. The tumor size was then used for calculations of T/C value. The T/C value (in percent) is an indication of antitumor effectiveness; T and C are the mean volumes of the treated and control groups, respectively, on a given day.
TGI was calculated for each group using the formula: TGI (%)=[1−(Ti−T0)/(Vi−V0)]×100; Ti is the average tumor volume of a treatment group on a given day, T0 is the average tumor volume of the treatment group on the day of treatment start, Vi is the average tumor volume of the vehicle control group on the same day with Ti, and V0 is the average tumor volume of the vehicle group on the day of treatment start.
Summary statistics, including mean and the standard error of the mean (SEM), are provided for the tumor volume of each group at each time point.
Statistical analysis of difference in tumor volume among the groups was conducted on the data obtained at the best therapeutic time point after the final dose.
A one-way ANOVA was performed to compare tumor volume among groups, and when a significant F-statistics (a ratio of treatment variance to the error variance) was obtained, comparisons between groups were carried out with Games-Howell test. All data were analyzed using Prism. P<0.05 was considered to be statistically significant.

Data set [3] in a line: Plasma pharmacokinetics of Bicycle conjugates in CD-1 mice. It counts as in vivo. Conditions: 3 mg/kg IV, male CD-1 mice. How it is done:
Male CD-1 mice were dosed with 3 mg/kg of Bicycle Conjugate formulated in 25 mM Histidine HCl, 10% sucrose pH 7 via tail vein injection. Serial bleeding (about 80 μL blood/time point) was performed via submadibular or saphenous vein at each time point. All blood samples were immediately transferred into prechilled microcentrifuge tubes containing 2 μL K2-EDTA (0.5M) as anti-coagulant and placed on wet ice.

Setting [4] is: Study 2, day 9, I-8 20 mpk iv tiw, aPD1 10 mpk ip qw.

Starred links: 1 amine or outer side, 2 acyl side, 3 side chain; linkers in the order of their positions; H or OH if unused. Positions of bridges follow the written chain, without caps; N, C: chain ends. Non-standard residues stand in square brackets, D forms with d. Residues, ends and D or L forms follow the SMILES beside them. *: point of attachment. X1 = CCOCc1nc2c(NC(=O)OCCSSC(C)CCC(=O)*)nc3ccccc3c2n1CC(C)(C)O; 1Nal = N[C@@H](Cc1cccc2ccccc12)C(=O)O; TBMB = c1c(C[*:1])cc(C[*:3])cc1C[*:2]; Tle = CC(C)(C)[C@H](N)C(=O)O; βAla = NCCC(=O)O; Sar = CNCC(=O)O

Turning to `CCOCc1nc2c(NC(=O)OCCSSC(C)CCC(=O)NCCC(=O)N(C)CC(=O)N(C)CC(=O)N(C)CC(=O)N(C)CC(=O)N(C)CC(=O)N(C)CC(=O)N(C)CC(=O)N(C)CC(=O)N(C)CC(=O)N(C)CC(=O)N[C@@H](C)C(=O)N[C@H]3CSCc4cc5cc(c4)CSC[C@H](NC(=O)[C@@H](C)NC(=O)[C@H](Cc4cccc6ccccc46)NC(=O)[C@H](CCC(=O)O)NC(=O)[C@H](CC(N)=O)NC(=O)[C@@H](C)NC3=O)C(=O)N[C@@H](CCC(=O)O)C(=O)N[C@@H](CC(=O)O)C(=O)N[C@@H](Cc3ccccc3)C(=O)N[C@@H](Cc3ccc(O)cc3)C(=O)N[C@@H](CC(=O)O)C(=O)N[C@@H](C(C)(C)C)C(=O)N[C@H](C(N)=O)CSC5)nc3ccccc3c2n1CC(C)(C)O` (some centres unmarked) [I-8] ({X1-βAla}-[Sar][Sar][Sar][Sar][Sar][Sar][Sar][Sar][Sar][Sar]AC[dA]NE[1Nal][dA]CEDFYD[Tle]C-NH2; linker 12-18-25 via TBMB), the “hTLR8 activation potency versus naked payload resiquimod” value in data set [1] was “considerably reduced potency or inactivity”. In addition, in data set [2] (Study 1, 20 mpk iv tiw, day 9), the T/C (as a rule, the result in the treated group divided by that in the control group, in per cent) was 54.9%; the TGI (commonly how far tumour growth fell short of that in controls) came out at 50.0%; the “Tumor Volume (Mean ± SEM)” value was determined as 356 ± 60 mm^3. In addition, in data set [2] (Study 1, 60 mpk iv tiw, day 9), the T/C is recorded as 25.6%, the TGI was found to be 82.9% and the “Tumor Volume (Mean ± SEM)” value is reported as 166 ± 26 mm^3. Moreover, in data set [2] (setting [4]), the T/C was determined as 86.8%, the TGI was found to be 13.7% and the “Tumor Volume (Mean ± SEM)” value is given as 1678 ± 1129 mm^3. Besides, the systemic elimination entry in data set [3] is recorded as “rapid systemic elimination”.
